Laboratory results: patent US20250213701A1, “MEDICAMENT FOR TREATING HUMAN TUMOR BASED ON ERF3A-TARGETING PROTEOLYSIS MECHANISM” (SUZHOU DEGEN BIO-MEDICAL CO., LTD., priority 2022, published 2025)

What was measured:
Type in all cases: cell-based
GSPT1 = molecular target: T1, GSPT1 (Homo sapiens, UniProt P15170+Q96SW2); experiment: Western blot assay in 22Rv1 cells: GSPT1; conditions: different concentrations at 24 h, and 3 nM at different time points (FIGS. 7 and 8)
T1 construct: The downregulation of SRD5A3 and GSPT1 (eRF3a) proteins in PC-3 and HepG2 cells by C59; endogenous in cells; host or cells: 22Rv1, PC-3, HepG2
T1 sequence (P15170 1-637 isoform P15170-3): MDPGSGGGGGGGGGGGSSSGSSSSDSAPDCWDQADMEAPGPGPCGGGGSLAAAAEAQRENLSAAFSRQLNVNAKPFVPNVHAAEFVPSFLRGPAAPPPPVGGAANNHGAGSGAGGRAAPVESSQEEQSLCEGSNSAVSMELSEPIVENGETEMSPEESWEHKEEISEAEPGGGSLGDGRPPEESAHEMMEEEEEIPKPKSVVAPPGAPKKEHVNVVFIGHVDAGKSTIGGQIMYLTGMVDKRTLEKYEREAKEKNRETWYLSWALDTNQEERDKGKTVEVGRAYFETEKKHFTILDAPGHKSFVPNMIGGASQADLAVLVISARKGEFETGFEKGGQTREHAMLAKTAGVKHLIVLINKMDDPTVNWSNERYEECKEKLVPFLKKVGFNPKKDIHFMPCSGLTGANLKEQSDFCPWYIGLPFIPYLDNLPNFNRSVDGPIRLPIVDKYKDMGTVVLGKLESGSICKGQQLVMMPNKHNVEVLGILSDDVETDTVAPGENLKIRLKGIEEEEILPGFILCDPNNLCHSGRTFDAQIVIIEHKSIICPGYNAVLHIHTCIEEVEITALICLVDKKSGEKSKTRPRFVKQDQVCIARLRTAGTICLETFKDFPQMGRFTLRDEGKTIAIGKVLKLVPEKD
T1 sequence (Q96SW2 whole entry): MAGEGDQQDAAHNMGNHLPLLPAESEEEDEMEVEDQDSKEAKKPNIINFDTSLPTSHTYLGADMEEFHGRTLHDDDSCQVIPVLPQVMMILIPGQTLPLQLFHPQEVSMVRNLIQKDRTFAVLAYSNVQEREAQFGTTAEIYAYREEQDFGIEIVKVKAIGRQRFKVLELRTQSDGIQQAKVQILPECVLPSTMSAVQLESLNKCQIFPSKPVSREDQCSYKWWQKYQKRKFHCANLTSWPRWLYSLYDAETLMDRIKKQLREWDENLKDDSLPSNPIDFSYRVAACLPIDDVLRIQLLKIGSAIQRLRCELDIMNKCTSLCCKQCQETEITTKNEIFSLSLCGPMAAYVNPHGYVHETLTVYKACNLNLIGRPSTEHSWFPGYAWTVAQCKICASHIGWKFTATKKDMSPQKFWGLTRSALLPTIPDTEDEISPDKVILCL
T1 sequence (Q16531 whole entry partner): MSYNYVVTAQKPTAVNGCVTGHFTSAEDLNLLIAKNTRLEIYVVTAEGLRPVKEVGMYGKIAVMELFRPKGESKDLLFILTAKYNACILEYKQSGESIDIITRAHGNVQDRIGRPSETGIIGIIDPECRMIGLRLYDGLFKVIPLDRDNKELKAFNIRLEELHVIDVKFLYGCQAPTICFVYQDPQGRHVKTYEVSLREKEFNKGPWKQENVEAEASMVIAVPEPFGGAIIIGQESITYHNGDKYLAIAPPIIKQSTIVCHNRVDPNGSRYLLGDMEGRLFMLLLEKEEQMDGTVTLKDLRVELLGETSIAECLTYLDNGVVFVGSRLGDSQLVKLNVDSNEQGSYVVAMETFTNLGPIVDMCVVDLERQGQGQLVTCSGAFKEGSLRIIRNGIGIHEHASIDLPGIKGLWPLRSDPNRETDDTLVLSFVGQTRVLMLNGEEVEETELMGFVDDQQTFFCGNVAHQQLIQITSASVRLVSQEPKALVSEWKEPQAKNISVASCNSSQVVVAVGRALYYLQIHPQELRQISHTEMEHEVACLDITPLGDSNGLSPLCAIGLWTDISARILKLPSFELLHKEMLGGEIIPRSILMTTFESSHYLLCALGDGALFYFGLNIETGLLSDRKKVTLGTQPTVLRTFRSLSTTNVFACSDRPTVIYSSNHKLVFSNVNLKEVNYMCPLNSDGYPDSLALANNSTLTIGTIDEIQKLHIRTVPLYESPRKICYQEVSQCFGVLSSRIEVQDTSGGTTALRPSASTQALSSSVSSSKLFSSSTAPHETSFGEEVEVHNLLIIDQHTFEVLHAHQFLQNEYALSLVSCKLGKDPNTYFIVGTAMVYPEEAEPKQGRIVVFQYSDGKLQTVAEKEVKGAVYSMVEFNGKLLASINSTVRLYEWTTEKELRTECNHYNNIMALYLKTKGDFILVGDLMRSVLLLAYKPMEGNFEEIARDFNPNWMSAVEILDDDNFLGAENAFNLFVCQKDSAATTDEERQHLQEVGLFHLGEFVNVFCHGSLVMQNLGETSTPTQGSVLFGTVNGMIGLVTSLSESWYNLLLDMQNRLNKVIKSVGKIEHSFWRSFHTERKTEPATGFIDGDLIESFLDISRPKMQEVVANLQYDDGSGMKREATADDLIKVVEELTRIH
Text: (§1) Example 84: Western Blot Assay of Compound C59 in 22Rv1, PC-3, and HepG2 Cells
(§2) (1) Materials: 22Rv1, PC-3, and HepG2 cell, anti-SRD5A1 antibody (ab167606), anti-SRD5A2 antibody (ab124877), anti-SRD5A3 antibody (PA5-107029), anti-androgen receptor (AR) antibody (CST, No. 5153), anti-GSPT1 antibody (Abcam, ab234433), anti-GADPH antibody (CST, No. 5174), anti-c-Myc antibody (CST, No. 8583), anti-α-tublin antibody (CST, No. 2125), anti-rabbit IgG, HRP-linked antibody (CST, No. 7074), electrophoresis device and membrane transfer device (LIUYI, BEIJING; DYCZ-24DN)
(§3) Cell seeding: 22Rv1 (Cell Bank of the Chinese Academy of Sciences, TCHu100), PC-3 (Cell Bank of the Chinese Academy of Sciences, SCSP-532) and HepG2 cells (Cell Bank of the Chinese Academy of Sciences, TCHu72) were subcultured and trypsinized to prepare 6×10^5 cells/mL suspensions, seeded on 6-well plates (3 mL/well), and cultured overnight in a cell incubator at 5% CO2 and 37° C. […]
(§4) Protein quantification: The protein was quantified using a BCA protein quantification kit. […]
(§5) Western immunoblot assay (or Western blot, WB): SDS-PAGE gel at a proper concentration was prepared according to the molecular weight of the target protein: for example, the concentration of the separation gel was 8% and the concentration of the stacking gel was 5%. The loading volume was adjusted according to the protein quantification results. […]

GSPT1 (eRF3a) = molecular target: T2, GSPT1 (eRF3a) (Homo sapiens, UniProt P15170+Q96SW2); experiment: Western blot assay in HepG2 cells: GSPT1 (eRF3a); conditions: different concentrations at 24 h (FIG. 10)
T2 construct: The downregulation of SRD5A3 and GSPT1 (eRF3a) proteins in PC-3 and HepG2 cells by C59; endogenous in cells; host or cells: 22Rv1, PC-3, HepG2
T2 sequence (P15170 1-637 isoform P15170-3): as the sequence (P15170 1-637 isoform P15170-3) above
T2 sequence (Q96SW2 whole entry): as the sequence (Q96SW2 whole entry) above
T2 sequence (Q16531 whole entry partner): as the sequence (Q16531 whole entry partner) above
Text: as §1, §2, §3, §4, §5

C-33 A cells = experiment: Anti-proliferative toxicity of C63 in tumor cell lines (CCK8): C-33 A; conditions: Homo sapiens, 72 h, 3 days, read-out: Inhibition rate
Procedure: (§6) Example 83: Detection of Anti-Proliferative Toxicity of C63 in Some Tumor Cell Lines
C-33 A cells (purchased from the Cell Bank of the Chinese Academy of Sciences, Cat. No. TCHu176) were subcultured in a culture medium (MEM medium+1% penicillin-streptomycin dual-antibiotic solution+10% fetal bovine serum) in an incubator at 5% carbon dioxide and 37° C.
C-33 A cells were seeded at 5000 cells/well (90 μL) on a 96-well plate and cultured for 24 h.
(§7) 10 mM compound stock solutions were prepared in DMSO.
(§8) The compound stock solution was diluted with DMSO to give DMSO solutions 1-9 at concentrations of 0 μM, 2500 μM, 500 μM, 100 μM, 20 μM, 4 μM, 0.8 μM, 0.16 μM, and 0.032 μM.
(§9) 2 μL of each of solutions 1-9 was added to 98 μL of the medium to give mixed solutions 11-19 of the compound and the medium.
(§10) 10 μL of each of solutions 11-19 was added to the above cell seed solution to give a total volume of 100 μL (90 μL+10 μL).
(§11) The concentrations of the compound in the wells were 0 μM, 5.0 μM, 1.0 μM, 0.2 μM, 0.04 μM, 0.008 μM, 0.0016 μM, 0.00032 μM, and 0.000064 μM. All concentrations were in triplicate.
(§12) After the above-treated cells were cultured for 3 days, 10 μL of the CCK8 solution (DOJINDO, Cat. No. PF725) was added to each well. The plate was incubated in an incubator at 37° C. for 1-4 h and then detected on a microplate reader for the reading at 450 nm.

HL-60 cells = experiment: Anti-proliferative toxicity of C63 in tumor cell lines (CCK8): HL-60; conditions: Homo sapiens, 72 h, 3 days, read-out: Inhibition rate
Procedure: as §6
HL-60 cells (purchased from the Cell Bank of the Chinese Academy of Sciences, Cat. No. TCHu23) were subcultured in a culture medium (IMDM medium+1% penicillin-streptomycin dual-antibiotic solution+20% fetal bovine serum) in an incubator at 5% carbon dioxide and 37° C.
HL-60 cells were seeded at 20000 cells/well (90 μL) on a 96-well plate and cultured for 24 h.
as §7, §8, §9, §10, §11, §12

downregulation of GSPT1 protein (Western blot) (GSPT1) | downregulation of GSPT1 (eRF3a) protein (Western blot) (GSPT1 (eRF3a)) | Structure (SMILES) | inhibition at 64 pM (C-33 A cells; 0.000064 μM) [%] | inhibition at 0.00032 µM (C-33 A cells; 0.000320 μM) [%] | inhibition at 0.0016 µM (C-33 A cells; 0.001600 μM) [%] | inhibition at 0.008 µM (C-33 A cells; 0.008000 μM) [%] | inhibition at 0.04 µM (C-33 A cells; 0.040000 μM) [%] | inhibition at 0.2 µM (C-33 A cells; 0.200000 μM) [%] | inhibition at 1 µM (C-33 A cells; 1.000000 μM) [%] | inhibition at 5 µM (C-33 A cells; 5.000000 μM) [%] | inhibition at 64 pM (HL-60 cells; 0.000064 μM) [%] | inhibition at 0.00032 µM (HL-60 cells; 0.000320 μM) [%] | inhibition at 0.0016 µM (HL-60 cells; 0.001600 μM) [%] | inhibition at 0.008 µM (HL-60 cells; 0.008000 μM) [%] | inhibition at 0.04 µM (HL-60 cells; 0.040000 μM) [%] | inhibition at 0.2 µM (HL-60 cells; 0.200000 μM) [%] | inhibition at 1 µM (HL-60 cells; 1.000000 μM) [%] | inhibition at 5 µM (HL-60 cells; 5.000000 μM) [%]
downregulation | downregulation | C[C@]12C=CC(=O)N[C@@H]1CC[C@@H]1[C@@H]2CC[C@]2(C)[C@@H](C(=O)Nc3cccc(N[C@@H]4CCC[C@@H](Nc5cccc6c5C(=O)N(C5CCC(=O)NC5=O)C6=O)C4)c3)CC[C@@H]12 (stereo partly drawn) [C59, N-(3-(N—(N-(4-(2-(3-(2,6-dioxopiperidine))-isoindole-1,3-dione))-1R,3R-cyclohexanediamine))phenyl)-3-oxo-4-aza-5α-androst-1-ene-17β-carboxamide] |  |  |  |  |  |  |  |  |  |  |  |  |  |  |  | 
 |  | C[C@]12C=CC(=O)N[C@@H]1CC[C@@H]1[C@@H]2CC[C@]2(C)[C@@H](C(=O)Nc3cccc(N[C@@H]4CCC[C@@H](Nc5cccc6c5C(=O)N([C@H]5CCC(=O)NC5=O)C6=O)C4)c3)CC[C@@H]12 [C63, N-(3-(N—(N-(4-(2-(3S-(2,6-dioxopiperidine))-isoindole-1,3-dione))-1R,3R-cyclohexanediamine))phenyl)-3-oxo-4-aza-5α-androst-1-ene-17β-carboxamide] | 21.5 | 15.9 | 25.4 | 35.5 | 48.3 | 56.7 | 63.9 | 72.3 | 73.5 | 80.2 | 89.5 | 90.7 | 92.4 | 94.3 | 91.6 | 87.5
